{"source": "patent US8709420B2", "about": "(GlaxoSmithKline Intellectual Property Limited, priority 2010, dated 2014)", "key": {"[1]": {"test_system": "SH-SY5Y neuroblastoma cell line", "assay": "In-vitro cytotoxicity, Alamar Blue cell viability", "format": "cell-based", "details": "72 h", "description": "(§1) SK-N-BE(2) (MYCN amplified) and SH-SY5Y (non-MYCN amplified neuroblastoma cell lines) were obtained from American Type Culture Collection (ATCC) (Manassas, Va.); BE(2)-c sub-clone of SK-N-BE(2) was obtained from Dr. Michelle Haber (Children's Cancer Institute for Medical Research, Lowry Cancer Research Centre, Randwick, Australia); Human Umbilical Vein Endothelial Cells (HUVECs) were obtained from Dr. Herman Yeger (The Hospital for Sick Children, Toronto, Ontario, Canada) and Tumor Initiating (TIC) cell lines NB12 and NB88, were obtained from Dr. David Kaplan (The Hospital for Sick Children, Toronto, Ontario, Canada). TICs NB12 and NB88 were isolated from the bone marrow metastases of relapsed high-risk neuroblastoma patients. Neuroblastoma cell lines SK-N-BE(2) and SH-SY5Y were grown in alpha-MEM containing 10% fetal bovine serum and 1% antibiotic mixture in humidified atmosphere at 37° C. with 5% CO2. NB12 and NB 88 were cultured as described previously.\n(§2) Cell viability was determined by Alamar Blue assay. Alamar blue (10% of total volume was added to each well three hours prior to fluorometric detection). Fluorometric detection was performed using the SPECTRAmax gemini Spectrophotometer at excitation wavelength of 540 nm and emission wavelength of 590 nm."}, "[2]": {"test_system": "SK-N-BE(2) neuroblastoma cell line", "assay": "In-vitro cytotoxicity, Alamar Blue cell viability", "format": "cell-based", "details": "for IC50: Homo sapiens, SKNBE2, 72 h", "description": "as §1, §2"}, "[3]": {"test_system": "Rh30 rhabdomyosarcoma cell line", "format": "cell-based", "protocol": "(§3) Materials: The cells were cultured at 37° C. in 5% CO2 in a-MEM (Multicell; Wisent, Inc., St. Bruno, Quebec, Canada) with 10% fetal bovine serum (FBS; Life Technologies, Grand Island, N.Y.) and 1% antibiotic mixture, containing 10000 IU penicillin and 10000 μg/ml streptomycin (Multicell; Wisent, Inc., St. Bruno, Quebec, Canada). Trypsin-EDTA, containing 0.05% trypsin and 0.53 mM EDTA was also purchased from Multicell; Wisent, Inc., St. Bruno, Quebec, Canada.\n(§4) Procedure: A total of 20,000 cells were plated in each well of 48 well-plates and incubated at 37° C. in 5% CO2. After 48 h, the cells were treated with various concentrations of drugs. After 72 h of treatment, the cell viability was determined by alamar blue assay."}, "[4]": {"test_system": "KHOS osteosarcoma cell line", "format": "cell-based", "protocol": "as §3, §4"}, "[5]": {"test_system": "Rh4 rhabdomyosarcoma cell line", "format": "cell-based", "protocol": "as §3, §4"}, "[6]": {"test_system": "RD rhabdomyosarcoma cell line", "format": "cell-based", "protocol": "as §3, §4"}, "[7]": {"assay": "Pharmacokinetics of topotecan and pazopanib in non-tumor bearing animals", "format": "in vivo, mice", "protocol": "Non-tumor bearing animals were randomized into four groups (n=3): Control, PZ, TP and TP+PZ. The doses of the drugs were the same as for the inguinal xenograft and metastatic models described above.\nAfter single drug administration, the saphenous vein blood samples (30 μl) were collected in heparinized microcentrifuge tubes at 30 min, 1 h, 2 h, 4 h, 8 h, 12 h, 18 h and 24 h as per the Lab Animal Services protocol. Plasma was immediately isolated after blood collection by centrifugation. For the topotecan assay, 10 μl plasma was immediately precipitated with 20 μl methanol and centrifuged. The supernatant and rest of the plasma were stored at […] until analysis.\n30 μl of supernatant was injected into the HPLC system, which consisted of Phenomenox C18 (Luna; 150×4.6 mm; particle size 5 microns) column, UV detector (267 nm). The mobile phase was 50:50 mixture of 10 mM potassium phosphate and methanol, with flow rate 1.0 ml/min. The calibration standards were 5, 10, 50, 100 and 200 μg/ml.\nAssay of topotecan: Prior to analysis, the previously prepared 20 μl methanolic extract was mixed with 50 μl of internal standard solution (5 ng/ml d6 topotecan dissolved 1% formic acid in acetonitrile). The mixture was then centrifuged and the supernatant was transferred to auto-sampler vials.\nThe LC/MS system consisted of an HPLC (Agilent Infinity 1290), Column (Kinetex HILIC, 2.6u, 100A, 50×4.6 mm) and a mass spectrometer (Sciex 5500-QTrap). The analytes were eluted by gradient flow. Mobile phase A was water:actonitrile (10:90) and mobile phase B was 10 mM ammonium acetate (pH 3.2). The mobile phase ratio was 5% A for 0-2 min, 20% A for 4-6 min and 5% A for 8-10 min at a flow rate 0.5 ml/min. The samples were analyzed by positive ion electrospray ionization technique in multiple reaction monitoring modes. The following mass transitions were monitored: 422.2 to 377 m/z, (topotecan M+H) and 428.2 to 377 m/z (topotecan d6 M+H). The calibration standard range was 0.5 ng/ml to 10 ng/ml."}, "Rh30 xenograft": {"test_system": "Rh30 xenograft", "assay": "RH30 rhabdomyosarcoma mouse xenograft model", "details": "for tumor growth rate: daily oral up to 56 days, pazopanib 150 mg/Kg, LDM topotecan 1.0 mg/kg, combination both"}, "SK-N-BE(2) xenograft": {"test_system": "SK-N-BE(2) xenograft", "assay": "SK-N-BE(2) neuroblastoma xenograft model", "format": "in vivo, NOD/SCID mice", "details": "for survival compared to control: daily oral gavage 56 days, TP 1.0 mg/Kg topotecan, PZ 150 mg/Kg pazopanib, TP+PZ both", "protocol": "(§5) 1×10^6 SK-N-BE(2) cells or 30,000 NB12 cells were implanted subcutaneously into the inguinal fat pad of each of non-obese diabetic/severe combined immune deficient (NOD/SCID) mice. […] The criteria for end point were tumor sizes exceeding 2.0 cms in diameter or animals showing signs of morbidity. The tumor sizes were measured on a daily basis until the end point or sacrifice. The long (D) and short diameters (d) were measured with calipers. Tumor volume (cm^3) was calculated as V=0.5×D×d^2. When end point was reached, the animals were sacrificed by cervical dislocation. Tumors were excised and were fixed in 10% formalin solution.\nIn the group of animals implanted with SK-N-BE(2) cells palpable tumors started appearing approximately two weeks after cell implantation and took an additional week to reach 0.5 cm in diameter, after which the treatment was started. The effect of treatment was assessed by measuring regression of tumors and by survival times. Drugs were administered daily over a period of 56 days, and the animals belonging to the TP+PZ group were also retreated from the 103rd day to evaluate the impact of resuming treatment on reversing drug resistance. Retreatment was continued until the 125th day, after which the mice were sacrificed."}, "NB12 xenograft": {"test_system": "NB12 xenograft", "assay": "NB12 TIC xenograft model", "format": "in vivo, NOD/SCID mice", "details": "for tumor growth compared to control: daily oral gavage, TP 1.0 mg/Kg, PZ 150 mg/Kg, TP+PZ both", "protocol": "as §5"}}, "note": "Read-outs that look alike come from different tables or passages of the source."}
{"smiles": "Cc1ccc(Nc2nccc(N(C)c3ccc4c(C)n(C)nc4c3)n2)cc1S(N)(=O)=O", "note": "[pazopanib, 5-[[4-[(2,3-dimethyl-2H-indazol-6-yl)methylamino]-2-pyrimidinyl]amino]-2-methylbenzenesulfonamide]", "values": [{"measurement": "viability of SH-SY5Y", "setting": "[1]; up to 5000 ng/ml", "value": "did not affect the viabilities"}, {"measurement": "viability of SK-N-BE(2)", "setting": "[2]; up to 5000 ng/ml, 72 h", "value": "did not affect the viabilities"}, {"measurement": "cell viability / cytotoxicity", "setting": "[3]", "value": "did not show cytotoxicity"}, {"measurement": "cell viability / cytotoxicity", "setting": "[4]", "value": "did not show cytotoxicity"}, {"measurement": "cell viability / cytotoxicity", "setting": "[5]", "value": "did not show cytotoxicity"}, {"measurement": "cell viability / cytotoxicity", "setting": "[6]", "value": "did not show cytotoxicity"}, {"measurement": "time optimal plasma concentration of pazopanib was maintained", "setting": "[7]; PZ group", "value": "at least 18 h"}, {"measurement": "time to peak plasma concentration of pazopanib", "setting": "[7]; PZ group, single oral 150 mg/Kg pazopanib", "value": 2, "unit": "h"}, {"measurement": "time optimal plasma concentration of pazopanib was maintained", "setting": "[7]; TP+PZ group", "value": "at least 18 h"}, {"measurement": "time to peak plasma concentration of pazopanib", "setting": "[7]; TP+PZ group, single oral 150 mg/Kg pazopanib+1.0 mg/Kg topotecan", "value": 2, "unit": "h"}, {"measurement": "tumor growth rate", "setting": "Rh30 xenograft", "value": "delayed the tumor growth rate"}, {"measurement": "survival compared to control", "setting": "SK-N-BE(2) xenograft", "value": "significantly enhanced survival"}, {"measurement": "tumor growth compared to control", "setting": "NB12 xenograft", "value": "No significant difference"}]}
{"smiles": "CC[C@@]1(O)C(=O)OCc2c1cc1n(c2=O)Cc2cc3c(CN(C)C)c(O)ccc3nc2-1", "note": "[topotecan]", "values": [{"measurement": "IC50", "setting": "[1]; Homo sapiens, SH-SY5Y, topotecan alone", "value": 0.0053, "unit": "µg/mL"}, {"measurement": "IC50", "setting": "[2]; topotecan alone", "value": 0.065, "unit": "µg/mL"}, {"measurement": "IC50", "setting": "[2]; topotecan with addition of 5000 ng/ml pazopanib, P=0.046", "value": 0.0351, "unit": "µg/mL"}, {"measurement": "cell viability / cytotoxicity", "setting": "[3]; 72 h treatment", "value": "dose-dependent reduction"}, {"measurement": "cell viability / cytotoxicity", "setting": "[4]; 72 h treatment", "value": "dose-dependent reduction"}, {"measurement": "cell viability / cytotoxicity", "setting": "[6]; 72 h treatment", "value": "dose-dependent reduction"}, {"measurement": "trough concentration of topotecan", "setting": "[7]; TP group", "value": 0.77, "unit": "ng/mL"}, {"measurement": "peak plasma concentration of topotecan", "setting": "[7]; TP group, single oral 1.0 mg/Kg topotecan", "value": 19.75, "unit": "ng/mL"}, {"measurement": "peak plasma concentration of topotecan", "setting": "[7]; TP+PZ group", "value": 33.05, "unit": "ng/mL"}, {"measurement": "trough concentration of topotecan", "setting": "[7]; TP+PZ group", "value": 2.79, "unit": "ng/mL"}, {"measurement": "efficacy relative to PZ, TP+PZ and intermittent dosing", "setting": "Rh30 xenograft; LDM topotecan 1.0 mg/kg daily oral", "value": "less effective"}, {"measurement": "tumor growth rate", "setting": "Rh30 xenograft", "value": "delayed the tumor growth rate"}, {"measurement": "tumor growth rate, TP versus PZ group", "setting": "SK-N-BE(2) xenograft; TP 1.0 mg/Kg vs PZ 150 mg/Kg, daily oral", "value": "No significant difference"}, {"measurement": "survival compared to control", "setting": "SK-N-BE(2) xenograft", "value": "significantly enhanced survival"}, {"measurement": "survival compared to control and PZ groups", "setting": "NB12 xenograft; daily oral gavage until day 83, P<0.005", "value": "significantly enhanced"}, {"measurement": "tumor growth compared to control", "setting": "NB12 xenograft", "value": "significantly reduced"}]}
